Values of other authors, collected in patent US9084838B2, “Feminine care absorbent article for use in warm climates” (Kimberly-Clark Worldwide, Inc., priority 2011, dated 2015).

Details: at 25° C.

For `O=C(O)CC(O)(CC(=O)O)C(=O)O` [citric acid], the pKa2 is given as 4.76 and the pKa3 is given as 6.40.
